Key:
[1] = Metabolic stability in mouse liver microsomes (in vitro t1/2); format: in vitro ADME; settings: mouse liver microsomes 0.5 mg/mL, 2 μM compound; for Mouse microsome % 60 min: % remaining at 60 min; for Mouse microsome t1/2, min: in vitro t1/2
Procedure, shortened: (§1)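 Liver microsomes (0.5 mg/mL final) were incubated with 2 μM test compound in the presence of NADPH, with aliquots taken at 0, 15, 30, 45 and 60 min. Parent remaining was quantified by LC-MS/MS. k was taken from the slope of ln(% remaining) versus time, and t1/2 = −0.693/k.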

[2] = Pharmacokinetic assay in mouse (IV 3 mg/kg, PO 10 mg/kg); format: in vivo; settings: male, CD1, mouse, plasma, read-out: Mouse F (%)
Description: (§2) Pharmacokinetic Assays in Mouse and Rat
(§3) The following are assays that may be used to evaluate the pharmacokinetic properties of Formula (I) in mouse or rat. The assays follow a common procedure recited below.
(§4) 1. […] For PO (oral gavage), DMSO/PEG400 (10:90). Formulations freshly prepared on the day of dosing or prior to dosing. Storage at room temperature.
(§5) 2. Test Species: For Mouse: Male CD1 strain, approximately 6-8 weeks in age, approximately 20-30 g. For Rat: Male Sprague-Dawley strain, approximately 6-8 weeks in age, approximately 200-300 g.
(§6) 3. Dose Level: For IV, 3 mg/kg. For PO, 10 mg/kg.
(§7) 4. Number of animals: 3 per assay.
(§8) 5. PK time points: For IV (plasma): 5 min, 15 min, 1, 2, 4, 6, 8, 24 h post dose. For PO (plasma): 15 min, 30 min, 1, 2, 4, 6, 8, 24 h post dose.
(§9) 6. Blood Sample Collection and Processing. Blood was collected (˜0.2 mL per time point) from jugular vein. Blood of each sample was transferred into plastic micro centrifuge tubes containing anticoagulant of EDTA-K2. Blood samples were centrifuged at 2,000 g for 5 minutes at 4° C. to obtain plasma.
(§10) 7. Samples Analysis: Plasma samples were analyzed using LC/MS/MS method, and pharmacokinetic parameters (half-life: t1/2; oral bioavailability: F; volume of distribution: Vss).

[3] = Pharmacokinetic assay in rat (IV 3 mg/kg, PO 10 mg/kg); format: in vivo; settings: male, Sprague-Dawley, plasma, read-out: Rat F (%)
Description: as §2, §3, §4, §5, §6, §7, §8, §9, §10

[4] = Metabolic stability in human liver microsomes (in vitro t1/2); format: in vitro ADME; settings: human liver microsomes 0.5 mg/mL, 2 μM compound, % remaining at 60 min
Procedure, shortened: as §1

MCT1 = MCT1 (Homo sapiens (Human), UniProt P53985); assay: Assay 4: MCT1-mediated lactate transport in BT20 breast cancer cells; format: cell-based
Method: (§11) Preparing BCECF-Loaded Cells
(§12) 10 µL of a 30 mM DMSO stock of BCECF-AM ester (Life Technologies) is added and the cells are incubated at 37° C. for 5 min. The cells are pelleted (300 g, 5 min), washed once with 1 mL Tyrode's Solution, pH 7.4, re-pelleted (300 g, 5 min), and resuspended in 1 mL Tyrode's Solution, pH 7.4.
Assay 4: MCT1-Mediated Lactate Transport in BT20 Breast Cancer Cells.
Preparation of BCECF loaded cells are as described for Assay 1. Lactate transport assay is as described for Assay 1, except 10 mM L-lactate (rather than 50 mM) is added.

CFA-induced arthritis [5] = assay: Adjuvant-induced arthritis model in rat: Difference of Weight Bearing test (DWB); format: in vivo; settings: SD rat, PO 3 days post CFA, compared to dexamethasone
CFA-induced arthritis [6] = assay: Adjuvant-induced arthritis model in rat: Mechanical Allodynia test (MA); format: in vivo; settings: SD rat, PO 3 days post CFA, compared to dexamethasone
[7] = Metabolic stability in rat liver microsomes (in vitro t1/2); format: in vitro ADME; settings: rat liver microsomes 0.5 mg/mL, 2 μM compound; for Rat microsome % 60 min: % remaining at 60 min
Procedure, shortened: as §1

MCT4 = MCT4 (Homo sapiens (Human), UniProt O15427); assay: Assay 3: MCT4-mediated lactate transport in MDA-MB-231 breast cancer cells; format: cell-based; settings: MDA-MB-231 cells
Method: as §11, §12
MCT4 activity may be assessed by monitoring the intracellular pH change that accompanies lactate/proton symport, using the pH-sensitive fluorescent dye 2′,7′-bis-(carboxyethyl)-5(6)-carboxyfluorescein (BCECF), in a manner similar to that previously reported for MCT1 and MCT4. The following is an exemplary procedure for assaying MCT4 activity of the compounds of Formula (I).

Chain of MCT1 (P53985 whole entry): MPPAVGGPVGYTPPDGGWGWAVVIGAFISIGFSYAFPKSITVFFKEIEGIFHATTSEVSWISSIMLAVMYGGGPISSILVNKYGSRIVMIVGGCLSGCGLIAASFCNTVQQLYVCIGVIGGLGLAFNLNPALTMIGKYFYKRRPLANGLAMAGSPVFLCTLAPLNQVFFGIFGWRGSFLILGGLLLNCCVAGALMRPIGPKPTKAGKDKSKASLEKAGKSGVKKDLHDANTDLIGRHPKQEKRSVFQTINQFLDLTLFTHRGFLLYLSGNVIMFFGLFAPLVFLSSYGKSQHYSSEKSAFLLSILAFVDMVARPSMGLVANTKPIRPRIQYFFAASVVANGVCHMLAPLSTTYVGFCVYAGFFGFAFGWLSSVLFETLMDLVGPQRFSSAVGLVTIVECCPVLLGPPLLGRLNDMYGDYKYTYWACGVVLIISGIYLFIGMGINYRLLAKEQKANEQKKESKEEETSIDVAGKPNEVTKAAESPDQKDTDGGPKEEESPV
Chain of MCT1 (P35613 140-385 partner): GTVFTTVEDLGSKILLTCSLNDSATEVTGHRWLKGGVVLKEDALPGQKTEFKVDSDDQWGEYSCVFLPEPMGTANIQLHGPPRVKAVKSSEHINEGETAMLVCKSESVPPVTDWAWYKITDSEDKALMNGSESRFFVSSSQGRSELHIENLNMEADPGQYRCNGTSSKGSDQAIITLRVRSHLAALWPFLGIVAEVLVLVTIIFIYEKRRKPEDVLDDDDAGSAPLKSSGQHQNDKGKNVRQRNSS
Chain of MCT4 (O15427 whole entry, looked up): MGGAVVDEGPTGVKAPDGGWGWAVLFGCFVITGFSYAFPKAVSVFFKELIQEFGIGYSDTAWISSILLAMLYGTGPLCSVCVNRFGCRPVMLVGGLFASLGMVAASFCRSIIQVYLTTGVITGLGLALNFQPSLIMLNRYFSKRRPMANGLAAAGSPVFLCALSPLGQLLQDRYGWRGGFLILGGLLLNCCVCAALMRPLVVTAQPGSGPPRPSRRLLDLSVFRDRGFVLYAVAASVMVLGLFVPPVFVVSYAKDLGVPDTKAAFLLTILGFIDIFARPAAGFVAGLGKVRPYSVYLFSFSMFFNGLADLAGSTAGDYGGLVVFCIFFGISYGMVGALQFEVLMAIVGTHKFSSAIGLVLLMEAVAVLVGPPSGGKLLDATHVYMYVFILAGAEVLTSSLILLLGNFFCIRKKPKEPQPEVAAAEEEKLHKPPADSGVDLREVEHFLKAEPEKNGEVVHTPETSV
Chain of MCT4 (P35613 whole entry partner, looked up): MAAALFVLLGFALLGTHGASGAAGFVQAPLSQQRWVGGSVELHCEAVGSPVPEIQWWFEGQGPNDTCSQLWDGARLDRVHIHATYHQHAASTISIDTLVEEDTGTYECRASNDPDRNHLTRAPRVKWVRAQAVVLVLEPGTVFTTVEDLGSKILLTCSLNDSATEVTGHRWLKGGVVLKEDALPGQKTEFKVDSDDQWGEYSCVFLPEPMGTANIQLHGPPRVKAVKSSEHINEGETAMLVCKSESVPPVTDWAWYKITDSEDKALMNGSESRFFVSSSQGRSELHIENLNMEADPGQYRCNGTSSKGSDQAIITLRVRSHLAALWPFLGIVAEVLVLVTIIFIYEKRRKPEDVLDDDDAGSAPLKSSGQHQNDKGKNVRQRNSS

| Compound | Mouse microsome % 60 min [1] [%] | bioavailability [2] [%] | bioavailability [3] [%] | Human microsome % 60 min [4] [%] | IC50 (MCT1; lactate transport (Table 26)) [nM] | IC50 (MCT1; lactate transport (Table 27)) [nM] | Rat microsome % 60 min [7] [%] | IC50 (MCT4) [nM] | Mouse microsome t1/2, min [1] | Rat microsome t1/2, min ([7]; in vitro t1/2) | Difference in Weight Bearing, Minimal Efficacious Dose (CFA-induced arthritis [5]) [mg/kg] | Mechanical Allodynia (Von Frey), Minimal Efficacious Dose (CFA-induced arthritis [6]) [mg/kg] |
| --- | --- | --- | --- | --- | --- | --- | --- | --- | --- | --- | --- | --- |
| COc1cccc(-c2cc(COC(C)(C)C(=O)O)nn2Cc2ccccc2Cl)c1 [Example 14, 2-([1-[(2-Chlorophenyl)methyl]-5-(3-methoxyphenyl)1H-pyrazol-3-yl]methoxy)-2-methylpropanoic acid] | 95 | 100 | 64 | 82 | > 100000 | > 100000 | – | – | – | – | 30 | 30 |
| CC(C)(OCc1cc(-c2cccc(OC3CC3)c2)n(-c2ccccc2Cl)n1)C(=O)O [Example 110, 2-([1-(2-Chlorophenyl)-5-(3-cyclo-propoxyphenyl)-1H-pyrazol-3-yl]methoxy)-2-methylpropanoic acid] | 86 | 100 | 84 | 99 | – | – | 94 | – | – | – | 10 | 10 |
| CC(C)(OCc1cc(-c2cc(OC3CC3)cs2)n(Cc2ccccc2Cl)n1)C(=O)O [Example 130, 2-([1-[(2-Chlorophenyl)methyl]-5-(4-cyclopropoxythien-2-yl)-1H-pyrazol-3-yl]methoxy)-2-methylpropanoic acid] | – | – | – | – | – | 55 | – | 98 | – | – | – | – |
| CCn1ncc2ccc(-c3cc(COC(C)(C)C(=O)O)nn3Cc3ccccc3Cl)cc21 [Example 150, 2-([1-[(2-Chlorophenyl)methyl]-5-(1-ethyl-1H-indazol-6-yl)-1H-pyrazol-3-yl]-methoxy)-2-methylpropanoic Acid] | – | 89 | 43 | 90 | – | – | 98 | – | ∞ | – | 10 | 10 |

Continued, in another order:

| Mouse microsome % 60 min [1] [%] | bioavailability [2] [%] | bioavailability [3] [%] | Human microsome % 60 min [4] [%] | IC50 (MCT1; lactate transport (Table 26)) [nM] | IC50 (MCT1; lactate transport (Table 27)) [nM] | Rat microsome % 60 min [7] [%] | IC50 (MCT4) [nM] | Mouse microsome t1/2, min [1] | Rat microsome t1/2, min ([7]; in vitro t1/2) | Compound | Difference in Weight Bearing, Minimal Efficacious Dose (CFA-induced arthritis [5]) [mg/kg] | Mechanical Allodynia (Von Frey), Minimal Efficacious Dose (CFA-induced arthritis [6]) [mg/kg] |
| --- | --- | --- | --- | --- | --- | --- | --- | --- | --- | --- | --- | --- |
| 99 | 100 | 18 | 87 | – | – | 95 | – | ∞ | ∞ | CC(C)COc1cccc(-c2cc(COC(C)(C)C(=O)O)nn2-c2cccc3cnn(C)c23)c1 [Example 170, 2-methyl-2-([1-(1-methyl-1H-indazol-7-yl)-5-[3-(2-methylpropoxy)phenyl]-1H-pyrazol-3-yl]methoxy]propanoic acid] | 3 | 3 |
| 81 | 100 | 100 | 64 | – | – | 69 | – | – | – | CCn1ncc2ccc(-c3cc(COC(C)(C)C(=O)O)nn3-c3ccccc3N3CCCC3)cc21 [Example 229, 2-([5-(1-ethyl-1H-indazol-6-yl)-1-[2-(pyrrolidin-1-yl)phenyl]-1H-pyrazol-3-yl]methoxy)-2-methylpropanoic acid] | 3 | 3 |
| 59 | 56 | 52 | 65 | – | – | 50 | – | – | – | CC(C)(OCc1cc(-c2cccc(OC3CC3)c2)n(-c2ccccc2N2CCC2)n1)C(=O)O [Example 232, 2-([1-[2-(Azetidin-1-yl)phenyl]-5-(3-cyclopropoxyphenyl)-1H-pyrazol-3-yl]-methoxy)-2-methylpropanoic acid] | 1 | 1 |
| – | – | – | – | – | 41000 | – | 1.3 | – | – | CCCn1ncc2ccc(-c3cc(COC(C)(C)C(=O)O)nn3-c3ccccc3N3CCCC3)cc21 [Example 250, 2-Methyl-2-([5-(1-propyl-1H-indazol-6-yl)-1-[2-(pyrrolidin-1-yl)phenyl]-1H-pyrazol-3-yl]methoxy]propanoic acid] | – | – |

From patent publication US11292767B2, “Heterocyclic inhibitors of MCT4” (Vettore, LLC, priority 2016, dated 2022)
